Literature values, collected in patent publication US20060045850A1, “Nasal delivery of cyclodextrin complexes of anti-inflammatory steroids” (QPharma, LLC, priority 2004, published 2006).

absorption when administered orally (administered orally): no absorption | absolute bio-availability (from the suspension formulation, administered nasally): less than 2.0%
Compound: CCC(=O)O[C@]1(C(=O)SCF)[C@H](C)C[C@H]2[C@@H]3C[C@H](F)C4=CC(=O)C=C[C@]4(C)[C@@]3(F)[C@@H](O)C[C@@]21C [Fluticasone]
